This test has as its target T1, IRAK4 (Homo sapiens, UniProt Q9NWZ3).
T1 construct: knocking-in a HiBiT fusion tag into the C-terminal of the IRAK4 gene in 293T cells; host or cells: 293T cells, knock-in of HiBiT at the endogenous IRAK4 locus
T1 sequence (Q9NWZ3 1-460): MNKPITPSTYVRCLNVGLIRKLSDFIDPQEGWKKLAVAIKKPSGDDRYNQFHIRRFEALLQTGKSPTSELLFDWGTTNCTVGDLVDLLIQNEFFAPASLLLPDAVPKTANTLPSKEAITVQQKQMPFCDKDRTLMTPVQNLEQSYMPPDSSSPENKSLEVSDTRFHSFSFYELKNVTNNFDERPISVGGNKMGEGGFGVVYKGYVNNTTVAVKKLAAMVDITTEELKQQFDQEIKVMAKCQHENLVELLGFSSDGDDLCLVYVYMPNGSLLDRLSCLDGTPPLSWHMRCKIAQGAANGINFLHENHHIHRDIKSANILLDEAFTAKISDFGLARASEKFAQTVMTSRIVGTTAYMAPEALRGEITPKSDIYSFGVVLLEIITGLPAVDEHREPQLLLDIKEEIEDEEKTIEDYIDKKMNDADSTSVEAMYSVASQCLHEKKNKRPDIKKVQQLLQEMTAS
As to the kind of experiment: IRAK4 degradation assay using the HiBiT Method. It counts as cell-based. The note with it: 293T cells expressing HiBiT-tagged IRAK4; 6-hour incubation; Nano-Glo HiBiT Lytic Assay luminescence. Summed up:
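HEK293T cells with HiBiT knocked into the IRAK4 C-terminus, 10,000 cells per well, treated with an 11-point half-log series […] in duplicate for 6 hours at 37° C., 5% CO2. Remaining IRAK4 quantified by Nano-Glo HiBiT lytic luminescence against DMSO controls.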

`Cc1cc(NC2CCC(=O)NC2=O)ccc1C1CCN(C(=O)CN2CCC(c3cn4cc(NC(=O)c5cccc(C(F)(F)F)n5)c(OC(C)C)cc4n3)CC2)CC1` (stereo not shown) [Example 87, N-[2-[1-[2-[4-[4-[(2,6-dioxo-3-piperidyl)amino]-2-methyl-phenyl]-1-piperidyl]-2-oxo-ethyl]-4-piperidyl]-7-isopropoxy-imidazo[1,2-a]pyridin-6-yl]-6-(trifluoromethyl) pyridine-2-carboxamide] registered a DC50 of 10 to 100 nM.
